Experiments:
anti-CD3 induced IL-2 = test: Anti-CD3 induced IL-2 production; type: in vivo, BALB/c mice; details: 12.5 mg/kg p.o.
Experimental: Six to 8 week old BALB/c mice were dosed p.o. with EXAMPLE 3 30 minutes prior to i.v. injection of 75 ng hamster anti-mouse CD3 antibody, 145-2C11 (PharMingen, San Diego, Calif.). Two hours after anti-CD3 injection mice were bled via cardiac puncture, serum was collected and assayed for IL-2 by ELISA (Endogen, Woburn, Mass.).

C57BL/6 mice = test: Delayed type hypersensitivity (DTH), mBSA footpad challenge; type: in vivo
Experimental: A modification of a method described by Magram, J., Turek, C. W., Killeen, N; Immunity, 4: 471, 1996 and Magram, J., Sfarra, J., Connaughton, S., et al; Ann. NY Acad. Sci., 795: 60-70, 1996 was used. On day 0 C57BL/6 mice were immunized intradermal (i.d.) with 400 μg methylated bovine serum albumin (mBSA) (Sigma Chemical Co., St. Louis, Mo.) in a 1:1 emulsion with complete Freund's adjuvant (Difco Labs, Detroit, Mich.). […] On day 7 post immunization mice were challenged in one hind footpad with 100 μg of mBSA in 20 μl of PBS and in the opposite footpad with PBS alone. Footpad swelling was measured 24 hours after challenge using a vernier caliper.

[1] = test system: BALB/c cardiac allograft in C57BL/6 recipients; test: Neonatal cardiac transplantation; type: in vivo, C57BL/6 mice; details: for cardiac allograft survival on day 13 post transplantation: q.d. from day -1, visual observation and electrocardiogram
Source text: Neonatal cardiac transplantation was done using a modification of methods described by Judd, K. P. & Trentin, J. J; Transplantation, 11(3): 298-302, 1971 and Fey, T. A., Krause, R. A., Hsieh, G. C., et al; J. Pharmacol. Tox. Methods, 39: 9-17, 1998 which are incorporated herein in their entirety.
Hearts from one to two day old C57BL/6 (isograft) and BALB/c (allograft) pups were removed aseptically and stored in cold PBS until transplant. Adult C57BL/6 mice were used as transplant recipients. Each recipient mouse was transplanted with an isograft heart in the left ear and an allograft heart in the right ear. Mice were anesthetized with avertin (0.25 cc/mouse, i.p.) (2.0 G 2,2,2-Tribromoethanol) (Aldrich, Milwaukee, Wis.) plus 2.0 ml 2-methyl-2-butanol (tert-amyl alcohol) (Aldrich, Milwaukee, Wis.) and protective ointment was applied to eyes after anesthesia. An incision was made in each ear pinnae using a scalpel blade and straight fine forceps were used to create a subcutaneous pocket in the ear. The donor heart was placed into the pocket using a second pair of forceps. On days 5-16, mice were anesthetized with isofluorane (Henry Schein, Melville, N.Y.) /oxygen and the heartbeats were visually assessed using a dissecting microscope. On the final day electrical activity of the cardiac tissue was monitored by electrocardiogram. The ears were then removed and the transplanted tissue were evaluated histologically for evidence of inflammation and necrosis (rejection).

[2] = test system: BALB/c skin allograft in C57BL/6 recipient mice; test: Skin transplantation; type: in vivo, C57BL/6 mice; details: q.d. day -1 to day 9
Source text: Skin transplantation was done using a modification of a previously described method Chang, A. E. & Sugarbaker, P. H; Transplantation, 29: 381, 1980 and Sugarbaker, P. H. & Chang, A; J. Immunol. Methods, 31: 167, 1979. Tail skin was collected from BALB/c donors, scraped free of fat and fascia and maintained in PBS on ice until transplanted. Partial thickness wounds were created on the backs of C57BL/6 recipient mice and the graft was cut to exactly fit the wound bed. Grafts were adhered to the wound bed with a small amount of wound glue (Henry Schein, Melville, N.Y.), covered with petroleum jelly embedded gauze (Sherwood Medical, St. Louis, Mo.) and bandaged for 5 days. On day 6, bandages were removed and grafts were scored visually for necrosis from day 6 to day 10.

[3] = test system: BALB/c islet grafts in diabetic C57BL/6 recipients; test: Islet transplantation; type: in vivo, C57BL/6 mice; details: 12 mg/kg oral daily
Experimental: Chemical diabetes was induced in C57BL/6 mice using a single intraperitoneal dose of streptozocin (150 mg/kg) as previously described in Markees, T. G., Serreze, D. V., Phillips, N. E., et al; Diabetes, 48(5): 967-974, 1999. Mice with persistent hyperglycemia of >300 mg/dl were selected for experimentation as allograft recipients. Blood for plasma glucose was monitored thrice weekly (Glucose Analyzer2; Beckman Instruments, Fullerton, Calif.). Islets of Langerhans from BALB/c donors were isolated by collagenase digestion followed by density-gradient separation, as described previously Markees, T. G., Serreze, D. V., Phillips, N. E., et al; Diabetes, 48(5): 967-974, 1999. Approximately 20 islets/g body weight were transplanted into the renal subcapsular space C57BL/6 recipients. Oral treatments were provided daily beginning one day prior to islet transplant through day 28. Rejection was defined as the first of two consecutive days on which the plasma glucose was greater than or equal to 250 mg/dl. To verify the functionality of islet grafts, the graft bearing kidney was removed and placed in 10% formalin for histological analysis. Recurrence of hyperglycemia after graft removal was interpreted as evidence that the graft was the source of insulin in treated mice.

IgG1 alloantibody = test: Alloantibody measurement, IgG1; type: in vivo, C57BL/6 mice; details: serum 21 days after cardiac allograft; dose not stated
Experimental: (§1) All sera were heat inactivated at 56° C. for 30 minutes and stored at −20° C. prior to analysis. BALB/c T cells were purified from spleen using MACS CD90 (Thy1.2) beads (Miltenyi Biotech, Auburn, Calif.). Briefly, 10^7 cells were resuspended in buffer containing 10 mg/ml of human IgG (Sigma, St. Louis, Mo.). […] The bead/cell mixture was then incubated for 15 minutes at 6-12° C., washed, and resuspended in 500 μl PharMingenStain Buffer (PharMingen , San Diego, Calif.) per 10^8 cells and run through an LS+ selection column. The isolated T cell suspension was adjusted to a concentration of 1×10^6 cells/ml. For flow cytometric analysis BALB/c T cells were incubated with recipient sera (1:50 for IgG2a analysis, 1:40 for IgG1 analysis). Following a 30 minute incubation at 4° C., the cells were washed and resuspended in either goat anti-mouse IgG1-phycoerythrin (PE) or anti-mouse IgG2a-PE antibody (Caltag, Burlingame, Calif.). Cells were analyzed using a Becton Dickinson FACScan (Mountain View, Calif.). Data are presented as mean and SEM of fluorescence intensity corrected for control (naive serum) fluorescence. Statistical analysis was performed using a two-tailed Student's t-test.

IgG2a alloantibody = test: Alloantibody measurement, IgG2a; type: in vivo, C57BL/6 mice; details: serum 21 days after cardiac allograft; dose not stated
Experimental: as §1

COc1cc(-c2nn(C3CCC(N4CCN(C)CC4)CC3)c3ncnc(N)c23)ccc1NC(=O)c1cc2ccccc2n1C (centres unmarked) [Example 3]
inhibition of anti-CD3 induced IL-2 (anti-CD3 induced IL-2): complete inhibition
inhibition of DTH (C57BL/6 mice; treatment given only on days 7 and 8 (around the antigen challenge)): 65%
inhibition of footpad swelling 24 hours post challenge (C57BL/6 mice; treatment p.o., q.d. from day -1 to day 8): 77%
cardiac allograft survival on day 13 post transplantation ([1]; 6 mg/kg p.o.): 60%
cardiac allograft survival on day 13 post transplantation ([1]; 12 mg/kg p.o.): 100%
Percent Survival Day 16 Post Transplant (cardiac allograft, electrocardiogram) ([1]; Example 3 3 mg/kg p.o., q.d.): 10%
histological evaluation of transplanted allograft hearts ([1]; compared to vehicle treated hearts): decrease in peri- and intra-graft inflammation and necrosis
survival of skin allografts ([2]; 6 mg/kg p.o.): 42%
survival of skin allografts ([2]; 12 mg/kg p.o.): 90%
histological evaluation of islet grafts [3]: minimal intra-graft inflammation
glycemic state of islet graft recipients ([3]; day -1 through day 28): normoglycemic
maintenance of BALB/c islet cell grafts ([3]; day -1 through day 28): 28 days
IgG1 alloantibody isotype production (IgG1 alloantibody): completely inhibited
IgG2a alloantibody isotype production (IgG2a alloantibody): completely inhibited

From patent US20050008640A1, “Method of treating transplant rejection” (priority 2003, published 2005)
